Laboratory results taken from ChEMBL document CHEMBL5465560, “Selectivity Literature for EUbOPEN Chemogenomic Library” (2024).

Columns and labels:
[1] = biological target: Homeodomain-interacting protein kinase 2 (Homo sapiens, UniProt Q9H2X6); test: Selectivity interaction (KinomeScan (DiscoverX)) EUB0000666a HIPK2; settings: at 10 µM
[2] = biological target: Cannabinoid receptor 1 (Homo sapiens, UniProt P21554); test: Selectivity interaction (Panel of non-epigenetic targets (kinases, GPCRs, ion channels, and transporters, Eurofins) ) EUB0000271b CNR1; settings: at 1 µM
Chain of Cannabinoid receptor 1 (P21554 whole entry): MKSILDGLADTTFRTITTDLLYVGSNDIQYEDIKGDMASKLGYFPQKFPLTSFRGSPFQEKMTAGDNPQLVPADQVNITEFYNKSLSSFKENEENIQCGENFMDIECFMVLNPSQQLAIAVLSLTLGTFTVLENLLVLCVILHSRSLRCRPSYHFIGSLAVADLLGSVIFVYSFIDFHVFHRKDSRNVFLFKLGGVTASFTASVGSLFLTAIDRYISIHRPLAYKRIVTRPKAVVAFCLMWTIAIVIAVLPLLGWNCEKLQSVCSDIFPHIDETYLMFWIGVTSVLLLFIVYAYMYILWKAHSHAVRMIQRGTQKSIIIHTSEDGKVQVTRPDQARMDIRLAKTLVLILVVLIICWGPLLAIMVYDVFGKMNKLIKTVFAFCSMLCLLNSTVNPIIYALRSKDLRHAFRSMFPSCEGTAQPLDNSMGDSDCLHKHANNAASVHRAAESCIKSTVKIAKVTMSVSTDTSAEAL

[3] = biological target: Mitogen-activated protein kinase 7 (Homo sapiens) (UniProt Q13164); test: Selectivity interaction (KinomeScan (DiscoverX)) EUB0001049a MAPK7; settings: at 1 µM
Chain of Mitogen-activated protein kinase 7 (Homo sapiens) (Q13164 2-816 limits assumed): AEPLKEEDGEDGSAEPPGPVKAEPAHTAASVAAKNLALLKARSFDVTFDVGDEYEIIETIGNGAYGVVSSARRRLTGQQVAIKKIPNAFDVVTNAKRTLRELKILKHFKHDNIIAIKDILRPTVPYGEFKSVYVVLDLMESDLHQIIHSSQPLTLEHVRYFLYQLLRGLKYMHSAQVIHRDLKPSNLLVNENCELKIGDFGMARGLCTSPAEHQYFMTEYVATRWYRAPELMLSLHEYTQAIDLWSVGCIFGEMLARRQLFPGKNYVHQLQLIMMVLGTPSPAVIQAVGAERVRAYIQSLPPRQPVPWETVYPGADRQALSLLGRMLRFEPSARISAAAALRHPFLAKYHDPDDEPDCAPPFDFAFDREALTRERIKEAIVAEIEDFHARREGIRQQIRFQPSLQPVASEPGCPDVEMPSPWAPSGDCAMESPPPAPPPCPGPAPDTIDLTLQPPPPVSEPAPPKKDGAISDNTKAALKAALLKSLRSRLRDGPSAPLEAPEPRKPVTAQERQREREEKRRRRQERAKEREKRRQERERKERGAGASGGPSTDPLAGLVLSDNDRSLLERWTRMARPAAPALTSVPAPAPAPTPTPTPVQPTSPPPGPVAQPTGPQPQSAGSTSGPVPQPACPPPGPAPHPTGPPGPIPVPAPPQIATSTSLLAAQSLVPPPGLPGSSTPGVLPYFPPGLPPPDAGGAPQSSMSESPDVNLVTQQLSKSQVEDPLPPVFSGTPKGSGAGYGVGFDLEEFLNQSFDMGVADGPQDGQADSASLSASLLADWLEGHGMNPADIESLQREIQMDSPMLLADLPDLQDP

[4] = biological target: T1, Inhibitor of nuclear factor kappa-B kinase subunit beta (Homo sapiens) (UniProt O14920); test: Selectivity interaction (KinomeScan (DiscoverX)) EUB0001049a IKBKB; settings: at 1 µM
T1 sequence (whole entry): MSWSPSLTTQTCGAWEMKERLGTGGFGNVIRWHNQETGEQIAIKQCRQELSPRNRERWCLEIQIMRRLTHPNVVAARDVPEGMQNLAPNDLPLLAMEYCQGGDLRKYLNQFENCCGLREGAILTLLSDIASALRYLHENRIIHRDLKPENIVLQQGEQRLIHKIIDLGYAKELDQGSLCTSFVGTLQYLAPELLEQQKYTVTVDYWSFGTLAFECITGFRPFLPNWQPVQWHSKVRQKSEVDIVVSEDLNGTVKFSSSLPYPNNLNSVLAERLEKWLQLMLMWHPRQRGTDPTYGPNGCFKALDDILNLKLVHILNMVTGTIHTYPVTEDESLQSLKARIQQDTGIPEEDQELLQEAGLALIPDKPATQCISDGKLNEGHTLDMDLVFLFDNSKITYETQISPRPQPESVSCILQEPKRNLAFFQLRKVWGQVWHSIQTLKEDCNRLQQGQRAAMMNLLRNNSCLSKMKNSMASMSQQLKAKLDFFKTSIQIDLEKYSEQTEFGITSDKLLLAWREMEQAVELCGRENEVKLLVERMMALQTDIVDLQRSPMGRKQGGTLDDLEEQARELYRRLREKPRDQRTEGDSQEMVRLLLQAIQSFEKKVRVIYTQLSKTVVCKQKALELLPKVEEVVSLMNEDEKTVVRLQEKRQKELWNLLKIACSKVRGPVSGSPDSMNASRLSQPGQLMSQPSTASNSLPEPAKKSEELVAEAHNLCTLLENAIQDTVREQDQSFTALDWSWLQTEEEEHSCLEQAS

[5] = system: Receptor-type tyrosine-protein kinase FLT3 (Homo sapiens), P36888 [UNDEFINED MUTATION]; test: (§1) Selectivity interaction (KinomeScan (DiscoverX)) EUB0000045b FLT3
[6] = system: T2, Receptor-type tyrosine-protein kinase FLT3 (Homo sapiens), P36888 [R834Q]; test: as §1
T2 sequence (whole entry): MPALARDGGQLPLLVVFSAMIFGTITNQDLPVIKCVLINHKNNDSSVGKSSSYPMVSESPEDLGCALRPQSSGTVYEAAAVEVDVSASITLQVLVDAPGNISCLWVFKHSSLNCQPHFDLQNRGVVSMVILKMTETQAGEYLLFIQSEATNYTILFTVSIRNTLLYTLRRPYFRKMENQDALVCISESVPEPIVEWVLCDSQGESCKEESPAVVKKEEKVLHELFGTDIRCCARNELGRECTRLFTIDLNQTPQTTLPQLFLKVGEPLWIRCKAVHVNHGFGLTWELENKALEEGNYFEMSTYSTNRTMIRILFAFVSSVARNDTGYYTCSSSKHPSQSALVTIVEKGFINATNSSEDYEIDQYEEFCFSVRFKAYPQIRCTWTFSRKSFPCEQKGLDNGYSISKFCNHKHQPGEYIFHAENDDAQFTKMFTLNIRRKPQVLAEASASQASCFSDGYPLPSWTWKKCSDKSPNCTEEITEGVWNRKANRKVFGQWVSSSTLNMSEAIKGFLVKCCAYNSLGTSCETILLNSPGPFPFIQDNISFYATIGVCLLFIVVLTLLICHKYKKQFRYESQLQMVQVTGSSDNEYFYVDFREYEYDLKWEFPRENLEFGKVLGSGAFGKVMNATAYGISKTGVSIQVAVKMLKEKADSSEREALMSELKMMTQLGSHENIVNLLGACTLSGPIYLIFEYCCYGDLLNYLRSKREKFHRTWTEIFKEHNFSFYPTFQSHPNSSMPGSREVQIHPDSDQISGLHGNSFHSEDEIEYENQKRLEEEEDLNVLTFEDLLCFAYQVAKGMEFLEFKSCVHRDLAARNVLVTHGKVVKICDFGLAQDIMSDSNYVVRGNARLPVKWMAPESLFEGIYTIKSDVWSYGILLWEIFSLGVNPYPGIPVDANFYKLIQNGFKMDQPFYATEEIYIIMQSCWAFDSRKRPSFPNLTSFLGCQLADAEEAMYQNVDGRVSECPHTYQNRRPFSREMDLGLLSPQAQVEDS

[7] = biological target: Serine/threonine-protein kinase WNK3 (Homo sapiens) (UniProt Q9BYP7); test: Selectivity interaction (ActivX KiNativ screen (ex vivo kinase selectivity in human PBMCs)) EUB0001619a WNK3; format: cell-based; settings: PBMC, at 1 µM
Chain of Serine/threonine-protein kinase WNK3 (Homo sapiens) (Q9BYP7 whole entry): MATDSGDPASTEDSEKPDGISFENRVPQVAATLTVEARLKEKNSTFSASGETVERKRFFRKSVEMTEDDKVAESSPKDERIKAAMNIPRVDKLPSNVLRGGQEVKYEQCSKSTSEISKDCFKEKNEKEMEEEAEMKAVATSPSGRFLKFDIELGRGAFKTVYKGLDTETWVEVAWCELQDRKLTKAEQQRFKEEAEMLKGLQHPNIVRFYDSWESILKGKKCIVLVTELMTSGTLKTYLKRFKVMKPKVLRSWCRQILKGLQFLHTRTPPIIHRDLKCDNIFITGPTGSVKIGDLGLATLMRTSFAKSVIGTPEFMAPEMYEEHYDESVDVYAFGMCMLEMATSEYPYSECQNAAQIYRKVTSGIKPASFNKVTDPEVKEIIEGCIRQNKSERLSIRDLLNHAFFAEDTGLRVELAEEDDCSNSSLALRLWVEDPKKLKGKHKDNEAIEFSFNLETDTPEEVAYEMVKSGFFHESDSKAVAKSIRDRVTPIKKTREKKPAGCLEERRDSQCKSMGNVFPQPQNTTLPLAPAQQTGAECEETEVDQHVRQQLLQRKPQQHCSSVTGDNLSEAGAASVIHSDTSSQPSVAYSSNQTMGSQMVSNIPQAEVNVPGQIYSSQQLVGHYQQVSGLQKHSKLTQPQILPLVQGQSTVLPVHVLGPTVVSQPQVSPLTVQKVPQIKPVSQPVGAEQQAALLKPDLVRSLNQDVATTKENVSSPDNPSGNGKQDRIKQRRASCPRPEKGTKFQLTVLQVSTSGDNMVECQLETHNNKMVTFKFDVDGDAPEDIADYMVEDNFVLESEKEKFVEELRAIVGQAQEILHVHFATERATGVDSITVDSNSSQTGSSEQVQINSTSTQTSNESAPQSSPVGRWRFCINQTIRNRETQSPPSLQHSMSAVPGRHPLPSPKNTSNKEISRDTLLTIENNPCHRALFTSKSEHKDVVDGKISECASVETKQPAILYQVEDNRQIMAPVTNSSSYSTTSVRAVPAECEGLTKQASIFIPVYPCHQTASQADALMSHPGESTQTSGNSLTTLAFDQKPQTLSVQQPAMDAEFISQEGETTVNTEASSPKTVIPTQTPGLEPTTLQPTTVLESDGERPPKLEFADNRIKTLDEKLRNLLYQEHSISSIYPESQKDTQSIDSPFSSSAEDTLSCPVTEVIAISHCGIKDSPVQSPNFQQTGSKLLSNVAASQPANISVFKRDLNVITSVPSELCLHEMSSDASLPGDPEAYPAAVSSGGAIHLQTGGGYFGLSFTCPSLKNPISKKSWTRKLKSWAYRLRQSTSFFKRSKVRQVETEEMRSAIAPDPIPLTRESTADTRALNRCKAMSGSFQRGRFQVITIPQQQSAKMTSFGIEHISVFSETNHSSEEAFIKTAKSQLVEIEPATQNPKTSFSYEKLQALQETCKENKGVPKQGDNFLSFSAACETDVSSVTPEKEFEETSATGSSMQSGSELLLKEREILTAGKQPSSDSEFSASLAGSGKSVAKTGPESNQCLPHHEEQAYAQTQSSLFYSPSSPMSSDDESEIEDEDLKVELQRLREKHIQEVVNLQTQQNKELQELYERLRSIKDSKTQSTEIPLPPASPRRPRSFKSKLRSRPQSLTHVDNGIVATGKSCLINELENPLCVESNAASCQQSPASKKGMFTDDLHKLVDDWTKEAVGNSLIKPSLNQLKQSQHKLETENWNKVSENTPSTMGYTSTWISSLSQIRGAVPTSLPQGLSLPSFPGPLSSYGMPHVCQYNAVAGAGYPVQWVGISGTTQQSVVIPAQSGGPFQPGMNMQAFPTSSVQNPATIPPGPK

Chain of Homeodomain-interacting protein kinase 2 (Q9H2X6 whole entry, looked up): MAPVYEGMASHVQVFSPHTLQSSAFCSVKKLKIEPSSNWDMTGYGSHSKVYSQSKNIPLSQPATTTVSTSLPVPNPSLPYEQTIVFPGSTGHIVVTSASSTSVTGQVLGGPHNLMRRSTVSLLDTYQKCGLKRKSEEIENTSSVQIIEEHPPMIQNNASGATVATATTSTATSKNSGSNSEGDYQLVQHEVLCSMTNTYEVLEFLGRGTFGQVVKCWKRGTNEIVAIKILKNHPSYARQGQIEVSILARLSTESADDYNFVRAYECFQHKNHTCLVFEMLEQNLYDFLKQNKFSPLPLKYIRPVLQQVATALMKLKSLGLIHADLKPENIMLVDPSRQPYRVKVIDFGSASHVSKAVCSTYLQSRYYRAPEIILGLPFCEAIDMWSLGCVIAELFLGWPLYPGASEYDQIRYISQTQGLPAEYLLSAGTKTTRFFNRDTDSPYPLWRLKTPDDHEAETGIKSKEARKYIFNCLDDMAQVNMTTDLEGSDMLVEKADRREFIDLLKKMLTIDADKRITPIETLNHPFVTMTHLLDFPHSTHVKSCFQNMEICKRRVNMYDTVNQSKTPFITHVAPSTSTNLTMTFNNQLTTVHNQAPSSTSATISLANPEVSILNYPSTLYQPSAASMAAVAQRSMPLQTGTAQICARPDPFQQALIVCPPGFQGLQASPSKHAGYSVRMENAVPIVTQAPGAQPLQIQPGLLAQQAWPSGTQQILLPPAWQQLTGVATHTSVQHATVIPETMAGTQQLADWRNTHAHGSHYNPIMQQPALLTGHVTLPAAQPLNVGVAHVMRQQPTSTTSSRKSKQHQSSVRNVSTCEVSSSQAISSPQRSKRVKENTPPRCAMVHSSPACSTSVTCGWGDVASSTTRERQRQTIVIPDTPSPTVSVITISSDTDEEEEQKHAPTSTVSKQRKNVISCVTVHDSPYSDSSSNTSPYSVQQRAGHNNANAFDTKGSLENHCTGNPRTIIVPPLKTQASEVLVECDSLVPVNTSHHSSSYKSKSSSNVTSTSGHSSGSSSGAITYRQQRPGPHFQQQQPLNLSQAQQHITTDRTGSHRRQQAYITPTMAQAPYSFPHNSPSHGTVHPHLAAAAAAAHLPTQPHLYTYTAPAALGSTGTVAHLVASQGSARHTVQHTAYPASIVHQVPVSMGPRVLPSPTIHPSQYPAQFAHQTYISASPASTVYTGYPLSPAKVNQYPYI

O=C(NOC[C@H](O)CO)c1ccc(F)c(F)c1Nc1ccc(I)cc1F
% of control [1]: 100%

Cc1cc(C)cc([C@@H]2c3cc(C)ccc3NC(=O)CN2C(=O)c2ccc(Br)s2)c1
% of inhibition [2]: -20%

COc1cc(Nc2nc(C)cc(-c3cnn4nc(OC)ccc34)n2)cc(C(F)(F)F)c1
% of control [3]: 83% | % of control [4]: 81%

C=CC(=O)Nc1cc(-n2c(=O)ccc3cnc4ccc(-c5ccc(NS(C)(=O)=O)cc5)cc4c32)ccc1C
% of control ([5]; at 1 µM): 99% | % of control ([5]; at 10 µM): 100% | % of control ([6]; at 1 µM): 100% | % of control ([6]; at 10 µM): 100%

N#Cc1cccc(-c2c[nH]c3ncnc(N4CCOCC4)c23)c1
% of inhibition [7]: -6%
